Measured values as given in patent US10357494B2, “Combination therapy comprising varlitinib and an anticancer agent” (ASLAN Pharmaceuticals PTE LTD, priority 2015, dated 2019).

How the values were obtained:
Format in all cases: in vivo, human
gastric cancer = assay: Treatment of gastric cancer patients with Varlitinib 400 mg bi-daily and cisplatin/capecitabine chemotherapy; conditions: for tolerability / dose limiting toxicity: 400 mg bi-daily with cisplatin and capecitabine; for dose limiting toxicity: first two treatment cycles
Experimental: Example 1 Treatment of Gastric Cancer with Valitinib 400 mg Bi-Daily Orally and Cisplatin/Capecitabine Combination Chemotherapy
person one with Her2 positive (3+) stage IV gastric cancer had progressive disease in the form of 2 target lesions following: • first line treatment with cisplatin and Xeloda® (capecitabine)—4 cycles, • second line treatment with the experimental drug TDM1 (an antibody drug conjugate comprising Herceptin®)—9 cycles, • third line treatment with experimental drug LJM716 (a Her3 monoclonal antibody) and Herceptin®.
After treatment cycle 4 with ASLAN001 400 mg bi-daily, cisplatin and capecitabine, see FIG. 1. […] The cisplatin and capecitabine regime was cisplatin 80 mg/m^2 IV infusion and capecitabine 1000 mg/m^2 orally twice daily for 14 days every 3 weeks.
person two with gastric cancer (4 target lesions) was given first line treatment of Valitinib 400 mg bi-daily, cisplatin and capecitabine. […] The cisplatin and capecitabine regime was cisplatin 80 mg/m^2 IV infusion and capecitabine 1000 mg/m^2 orally twice daily for 14 days every 3 weeks.

[1] = system: stage IV Cholangiocarcinoma and metastatic lymphadenopathy; assay: Treatment of stage IV cholangiocarcinoma and metastatic lymphadenopathy patient with Varlitinib and cisplatin/5FU; conditions: person, first line, 300 mg BID Varlitinib combined with Cis/5-FU
Experimental: Example 5 Treatment of Stage IV Cholangiocarcinoma and Metastatic Lymphadenopathy with Varlitinib 400 mg Bi-Daily Orally and Cisplatin/5FU Combination Chemotherapy A person with stage IV Cholangiocarcinoma and metastatic lymphadenopathy diagnosed in January 2016, no prior surgery or treatment was give first line treatment of 300 mg BID Varlitinib combined with Cis/5-FU, 28-day cycle.

[2] = system: stage IV cholangiocarcinoma; assay: Treatment of cholangiocarcinoma patients with Varlitinib bi-daily and cisplatin/capecitabine chemotherapy; conditions: person
Experimental: Example 2 Treatment of Cholangiocarcinoma with Varlitinib 400 mg Bi-Daily Orally and Cisplatin/Capecitabine Combination Chemotherapy A person with stage IV cholangiocarcinoma (3 lesions) had progressive disease following treatment with: • radiotherapy, and • gemcitabine (Gemzar®) and cisplatin—6 months. […] The cisplatin and capecitabine regime was cisplatin 80 mg/m^2 IV infusion and capecitabine 1000 mg/m^2 orally twice daily for 14 days every 3 weeks. Example 3 Treatment of Cholangiocarcinoma with Varlitinib 500 mg Bi-Daily Orally and Cisplatin/Capecitabine Combination Chemotherapy A person with stage IV cholangiocarcinoma had progressive disease following treatment with radiotherapy and bi-weekly 5-FU. […] The cisplatin and capecitabine regime was cisplatin 80 mg/m^2 IV infusion and capecitabine 1000 mg/m^2 orally twice daily for 14 days every 3 weeks.

[3] = system: gastric tumours co-expressing EGFR and HER2 or HER2 amplified; assay: Phase I monotherapy trial in gastric cancer patients, tumour biopsies analysed by immunohistochemistry; conditions: monotherapy 500 mg orally BID for 28 days, 23 patients; biopsies before and after treatment
Experimental: (R)—N4-[3-Chloro-4-(thiazol-2-ylmethoxy)-phenyl]-N6-(4-methyl-4,5,-dihydro-oxazol-2-yl)-quinazoline-4,6-diamine (Varlitinib Example 52 disclosed in WO2005/016346), is a small-molecule pan-HER inhibitor. It has been tested as a monotherapy in phase I clinical trials of gastric cancer patients. 23 patients, who had previously failed on one or more rounds of chemotherapy, and where eligible for trastuzumab, each received 500 mg of Varlitinib orally twice daily (BID) as monotherapy for 28 days. Tumour biopsies taken before and after treatment were analysed using immunohistochemistry.

bladder cancer = assay: Treatment of bladder cancer patient with 300 mg Valitinib and FOLFOX; conditions: person
Experimental: Example 7 Treatment of the Bladder Cancer with 300 mg Valitinib and FOLFOX A person was diagnosed with bladder cancer 2014. They received radical cystoprostatetomy and prior therapy with Cisplatin and radiotherapy (pelvis) on 20 Feb. 2014; gemcitabline and cisplatin on 10 Apr. 2015 with last dose on 8 May 2015. The patient received 9 cycles of 300 mg Valitinib BID and FOLFOX and 5 cycles of Varlitinib 300 mg monotherapy. The Valitinib in the combination therapy interruption from 21 to 27 Sep. 2015; 21 Oct. to 23 Oct.

tumour = assay: Clinical data summary as of June 2016, Varlitinib combination arms
Description: As of June 2016 the following clinical data summary: […]

[4] = system: intrahepatic bile duct cholangiocarcinoma; assay: Treatment of intrahepatic bile duct cholangiocarcinoma patient with Varlitinib and FOLFOX; conditions: person, progressive on gemcitabine and cisplatin; 9 cycles Varlitinib 400 mg reduced to 300 mg BID and FOLFOX, then 7 cycles monotherapy
Experimental: Example 6 Treatment of the Intrahepatic Bile Duct Cholangiocarcinoma with 300 mg Valitinib and FOLFOX A person diagnosed in 2013 with intrahepatic bile duct cholangiocarcinoma, had received surgery in the form of left hemihepatectomy in 15 Jul. 2013. Prior therapies were gemcitabine and cisplatin 14 Aug. 2013 with last dose 8 Jan. 2014 and repeated between 13 May 2015 and 1 Jul. 2015. With this treatment the status was progressive disease. The patient was give 9 cycles combination Varlitinib 400 mg reduced to 300 mg BID and FOLFOX. This was followed with 7 cycles of Valitinib monotherapy.

[5] = system: stage IV sigmoid colorectal cancer; assay: Treatment of stage IV sigmoid colorectal cancer patient with Varlitinib 300 mg BID and oxaliplatin/capecitabine; conditions: person, stage IV sigmoid colorectal cancer with metastasis, 300 mg bi-daily
Experimental: Example 4 Treatment of Stage IV Sigmoid Coloreactal Cancer with Varlitinib 300 mg BID Oxaliplatin/Capecitabine
A person with stage IV sigmoid colorectal cancer with metastasis to liver, lungs and lymph node.
The prior treatments included: • Anterior resection with right hemi-hepatetomy and cholecystecomy • XELOX (PD), XELIRI (PR), Irrinotecan & Cetuximab (SD) • Xeloda and Avastin (SD), Bayer PTEFb-CDK9 inhibitor (PD)
The treatment per 3 weeks cycle was 300 mg ASLAN001 orally bi-daily, oxaliplatin 130 mg/m^2 IV infusion (Day 1) and capecitabine 850 mg/m^2 (Day 1-14) until Cycle 6, then from Cycle 7+ onwards, Varlitinib 300 mg b-daily as monotherapy per 4 week cycle.

[6] = 9 cycles 300 mg BID and FOLFOX, then 5 cycles 300 mg monotherapy

For `C[C@@H]1COC(Nc2ccc3ncnc(Nc4ccc(OCc5nccs5)c(Cl)c4)c3c2)=N1` [Varlitinib, (R)—N4-[3-Chloro-4-(thiazol-2-ylmethoxy)-phenyl]-N6-(4-methyl-4,5,-dihydro-oxazol-2-yl)-quinazoline-4,6-diamine], the “response after treatment cycle 4” value (gastric cancer; person one, Her2 positive (3+) stage IV gastric cancer, progressive after three prior lines, Varlitinib 400 mg bi-daily, cisplatin and capecitabine) was 29%, the tolerability (gastric cancer; person one, gastric cancer) was “well tolerated” and the dose limiting toxicity (gastric cancer; person one, gastric cancer) was “No dose limiting toxicity was observed”. For the same molecule, the disease status category (gastric cancer; person one, stage IV gastric cancer, after cycle 4 of Varlitinib 400 mg bi-daily, cisplatin and capecitabine) was “stable disease”, the “response after cycle 4” value (gastric cancer; person two, gastric cancer (4 target lesions), first line, 400 mg bi-daily, cisplatin and capecitabine) was 41% and the tolerability (gastric cancer; person two, gastric cancer) was “well tolerated”. The disease status designation (gastric cancer; person two, gastric cancer, due to development of a new bone lesion) was “progression disease”, the dose limiting toxicity (gastric cancer; person two, gastric cancer) was “No dose limiting toxicity was observed” and the current disease status [1] was “stable disease”. For the same molecule, the “tumor reduction at first response (C2)” value ([1]; 28-day cycle, 5 Mar. 2016) was 16%, the “tumor reduction at last response (C4)” value ([1]; 28-day cycle, 17 May 2016) was 13% and the tolerability ([2]; cholangiocarcinoma, 400 mg bi-daily with cisplatin and capecitabine) was “well tolerated”. The dose limiting toxicity ([2]; cholangiocarcinoma, first two treatment cycles, 400 mg bi-daily with cisplatin and capecitabine) was “No dose limiting toxicity was observed”, the “response after treatment cycle 2” value ([2]; stage IV cholangiocarcinoma, progressive after radiotherapy and 5-FU, Varlitinib orally 500 mg bi-daily, cisplatin and capecitabine) was 4% and the “signs of clinical activity: cell survival and proliferation” value [3] was “reduction in cell survival and cell proliferation”. The “signs of clinical activity: signalling pathways” value [3] was “downregulation of signalling pathways responsible for cell proliferation”, the “adverse event leading to treatment interruption” value (bladder cancer; 300 mg BID and FOLFOX combination therapy) was “G2 weight loss” and the “best % tumour change” value (bladder cancer; [6]) was −4%. For the same molecule, the patient status (bladder cancer; [6]) was “stable disease”, the “Best response (% change)” value (tumour; Combo with cis/5-FU, 300 mg Varlitinib, 6 patients) was −21% and the “Best response (% change)” value (tumour; Combo with cis/5-FU, 400 mg Varlitinib, 7 patients) was −47%. The “Best response (% change)” value (tumour; Combo with cis/cap, 400 mg Varlitinib, 6 patients) was −87%, the “Best response (% change)” value (tumour; Combo with cis/cap, 500 mg Varlitinib, 4 patients) was −4% and the patient status [4] was “partial response”. The “response after 2 cycles (figure)” value [5] was 335 and the “response category after 2 cycles” value [5] was “partial response”.
